Measured values as given in the supplement of paper PMC10627819.

How the values were obtained:
Assay in all cases: Bliss interaction score (quartile over a dose matrix) (fitness difference); higher = more antagonism (negative = synergy)
[1] = tested on: B. subtilis 168
Method in brief: (§1)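 OD595 was read at entry into stationary phase and expressed relative to the robust mean of the no-drug wells on the same plate, capped at 1. The resulting ratio is the fitness value. The Bliss score, observed fitness minus product-based expected fitness with single-drug fitness inferred from combinations, is summarised by quartiles over technical, biological and donor/recipient replicates.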

[2] = tested on: S. pneumoniae D39V
Method in brief: as §1

[3] = tested on: S. aureus Newman
Method in brief: as §1

[4] = tested on: S. aureus DSM 20231
Method in brief: as §1
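Further: first quartile when negative (synergy) and third quartile when positive (antagonism).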

Question: Which Bliss interaction score [1] does the source give for `CC(=O)O[C@H]1C[C@@]2(C)[C@@H](C[C@@H](O)[C@H]3[C@@]4(C)CC[C@@H](O)[C@@H](C)[C@@H]4CC[C@@]32C)/C1=C(\CCC=C(C)C)C(=O)O` [Fusidic acid] + CCC[C@@H]1C[C@@H](C(=O)N[C@@H]([C@H]2O[C@H](SC)[C@H](O)[C@@H](O)[C@H]2O)[C@@H](C)O)N(C)C1 [Lincomycin] here?
Answer: Its Bliss interaction score is 0.0915.

Question: And the Bliss interaction score [2]?
Answer: The Bliss interaction score was -0.0651.

Question: And the Bliss interaction score [3]?
Answer: Its Bliss interaction score is -0.0595.

Question: And the Bliss interaction score [4]?
Answer: Its Bliss interaction score is -0.0572.

Question: How did the Bliss interaction score [1] turn out when `CC(=O)O[C@H]1C[C@@]2(C)[C@@H](C[C@@H](O)[C@H]3[C@@]4(C)CC[C@@H](O)[C@@H](C)[C@@H]4CC[C@@]32C)/C1=C(\CCC=C(C)C)C(=O)O` [Fusidic acid] + CCN(CC)CCOC(=O)c1ccc(N)cc1 [Procaine] was run?
Answer: Its Bliss interaction score is -0.0381.

Question: And the Bliss interaction score [2]?
Answer: The Bliss interaction score was 0.0981.

Question: What about the Bliss interaction score [3] of the same compound?
Answer: Its Bliss interaction score is -0.0177.

Question: And the Bliss interaction score [4]?
Answer: The Bliss interaction score was -0.0218.

Question: `CC(=O)O[C@H]1C[C@@]2(C)[C@@H](C[C@@H](O)[C@H]3[C@@]4(C)CC[C@@H](O)[C@@H](C)[C@@H]4CC[C@@]32C)/C1=C(\CCC=C(C)C)C(=O)O` [Fusidic acid] + CC[C@H]1OC(=O)[C@H](C)C(=O)[C@H](C)[C@@H](O[C@@H]2O[C@H](C)C[C@H](N(C)C)[C@H]2O)[C@](C)(OC)C[C@@H](C)C(=O)[C@H](C)[C@H]2N(CCCCn3cnc(-c4cccnc4)c3)C(=O)O[C@]12C [Telithromycin] was tested. Which Bliss interaction score [1] did it give?
Answer: Its Bliss interaction score is -0.0755.

Question: What about the Bliss interaction score [2] of the same compound?
Answer: The Bliss interaction score was -0.0347.

Question: And the Bliss interaction score [3]?
Answer: The Bliss interaction score was 0.0161.

Question: And the Bliss interaction score [4]?
Answer: Its Bliss interaction score is -0.0334.

Question: For `CC(=O)O[C@H]1C[C@@]2(C)[C@@H](C[C@@H](O)[C@H]3[C@@]4(C)CC[C@@H](O)[C@@H](C)[C@@H]4CC[C@@]32C)/C1=C(\CCC=C(C)C)C(=O)O` [Fusidic acid] + CN1C2=CC=CC=C2N=C3C1=CC=CC3=O [Pyocyanin], which Bliss interaction score [1] is on record?
Answer: The Bliss interaction score was 0.0385.

Question: And the Bliss interaction score [2]?
Answer: The Bliss interaction score was 0.0648.

Question: What about the Bliss interaction score [3] of the same compound?
Answer: The Bliss interaction score was 0.0295.

Question: What about the Bliss interaction score [4] of the same compound?
Answer: Its Bliss interaction score is 0.0421.

Question: How did the Bliss interaction score [1] turn out when `CC(=O)O[C@H]1C[C@@]2(C)[C@@H](C[C@@H](O)[C@H]3[C@@]4(C)CC[C@@H](O)[C@@H](C)[C@@H]4CC[C@@]32C)/C1=C(\CCC=C(C)C)C(=O)O` [Fusidic acid] + CN(C)C(=O)C(CCN1CCC(O)(c2ccc(Cl)cc2)CC1)(c1ccccc1)c1ccccc1 [Loperamide] was run?
Answer: The Bliss interaction score was -0.0873.

Question: And the Bliss interaction score [2]?
Answer: Its Bliss interaction score is 0.128.

Question: And the Bliss interaction score [3]?
Answer: The Bliss interaction score was 0.0269.

Question: And the Bliss interaction score [4]?
Answer: The Bliss interaction score was 0.0226.

Question: For `CC(=O)O[C@H]1C[C@@]2(C)[C@@H](C[C@@H](O)[C@H]3[C@@]4(C)CC[C@@H](O)[C@@H](C)[C@@H]4CC[C@@]32C)/C1=C(\CCC=C(C)C)C(=O)O` [Fusidic acid] + CN(C)c1cc(NC(=O)CNC(C)(C)C)c(O)c2c1C[C@H]1C[C@H]3[C@H](N(C)C)C(O)=C(C(N)=O)C(=O)[C@@]3(O)C(O)=C1C2=O [Tigecycline], which Bliss interaction score [1] is on record?
Answer: Its Bliss interaction score is 0.074.

Question: And the Bliss interaction score [2]?
Answer: Its Bliss interaction score is -0.0713.

Question: What about the Bliss interaction score [3] of the same compound?
Answer: Its Bliss interaction score is 0.0375.

Question: What about the Bliss interaction score [4] of the same compound?
Answer: Its Bliss interaction score is -0.0504.

Question: How did the Bliss interaction score [1] turn out when `CC(=O)O[C@H]1C[C@@]2(C)[C@@H](C[C@@H](O)[C@H]3[C@@]4(C)CC[C@@H](O)[C@@H](C)[C@@H]4CC[C@@]32C)/C1=C(\CCC=C(C)C)C(=O)O` [Fusidic acid] + CN(N=O)C(=O)N[C@@H](C=O)[C@@H](O)[C@H](O)[C@H](O)CO [Streptozotocin] was run?
Answer: Its Bliss interaction score is 0.0745.

Question: And the Bliss interaction score [2]?
Answer: Its Bliss interaction score is 0.0486.

Question: What about the Bliss interaction score [3] of the same compound?
Answer: The Bliss interaction score was -0.0145.

Question: What about the Bliss interaction score [4] of the same compound?
Answer: Its Bliss interaction score is -0.0166.

Question: What does the source list for `CC(=O)O[C@H]1C[C@@]2(C)[C@@H](C[C@@H](O)[C@H]3[C@@]4(C)CC[C@@H](O)[C@@H](C)[C@@H]4CC[C@@]32C)/C1=C(\CCC=C(C)C)C(=O)O` [Fusidic acid] + CN[C@@H]1[C@H](O)[C@H](NC)[C@H]2O[C@@]3(O)C(=O)C[C@@H](C)O[C@H]3O[C@@H]2[C@H]1O [Spectinomycin]?
Answer: Bliss interaction score [1]: 0.0642; Bliss interaction score [2]: -0.0789; Bliss interaction score [3]: -0.0448; Bliss interaction score [4]: 0.027

Question: Which results are given for `CC(=O)O[C@H]1C[C@@]2(C)[C@@H](C[C@@H](O)[C@H]3[C@@]4(C)CC[C@@H](O)[C@@H](C)[C@@H]4CC[C@@]32C)/C1=C(\CCC=C(C)C)C(=O)O` [Fusidic acid] + CN[C@@H]1[C@H](O[C@H]2[C@H](O[C@H]3[C@H](O)[C@@H](O)[C@H](N=C(N)N)[C@@H](O)[C@@H]3N=C(N)N)O[C@@H](C)[C@]2(O)C=O)O[C@@H](CO)[C@H](O)[C@H]1O [Streptomycin]?
Answer: Bliss interaction score [1]: 0.0692; Bliss interaction score [2]: -0.0901; Bliss interaction score [3]: -0.0834; Bliss interaction score [4]: 0.034

Question: How did the Bliss interaction score [1] turn out when `CC(=O)O[C@H]1C[C@@]2(C)[C@@H](C[C@@H](O)[C@H]3[C@@]4(C)CC[C@@H](O)[C@@H](C)[C@@H]4CC[C@@]32C)/C1=C(\CCC=C(C)C)C(=O)O` [Fusidic acid] + CN[C@H](CC(C)C)C(=O)N[C@H]1C(=O)N[C@@H](CC(N)=O)C(=O)N[C@H]2C(=O)N[C@H]3C(=O)N[C@H](C(=O)N[C@H](C(=O)O)c4cc(O)cc(O)c4-c4cc3ccc4O)[C@H](O)c3ccc(c(Cl)c3)Oc3cc2cc(c3O[C@@H]2O[C@H](CO)[C@@H](O)[C@H](O)[C@H]2O[C@H]2C[C@](C)(N)[C@H](O)[C@H](C)O2)Oc2ccc(cc2Cl)[C@H]1O [Vancomycin] was run?
Answer: The Bliss interaction score was -0.0397.

Question: And the Bliss interaction score [2]?
Answer: The Bliss interaction score was 0.0729.

Question: And the Bliss interaction score [3]?
Answer: Its Bliss interaction score is -0.0305.

Question: And the Bliss interaction score [4]?
Answer: The Bliss interaction score was 0.0205.

Question: How did the Bliss interaction score [1] turn out when `CC(=O)O[C@H]1C[C@@]2(C)[C@@H](C[C@@H](O)[C@H]3[C@@]4(C)CC[C@@H](O)[C@@H](C)[C@@H]4CC[C@@]32C)/C1=C(\CCC=C(C)C)C(=O)O` [Fusidic acid] + CN[C@H](CC(C)C)C(=O)N[C@H]1C(=O)N[C@@H](CC(N)=O)C(=O)N[C@H]2C(=O)N[C@H]3C(=O)N[C@H](C(=O)N[C@H](C(=O)O)c4cc(O)cc(O)c4-c4cc3ccc4O)[C@H](O[C@H]3C[C@](C)(N)[C@@H](O)[C@H](C)O3)c3ccc(c(Cl)c3)Oc3cc2cc(c3O[C@@H]2O[C@H](CO)[C@@H](O)[C@H](O)[C@H]2O[C@H]2C[C@](C)(NCc3ccc(-c4ccc(Cl)cc4)cc3)[C@@H](O)[C@H](C)O2)Oc2ccc(cc2Cl)[C@H]1O [Oritavancin] was run?
Answer: The Bliss interaction score was 0.0477.

Question: And the Bliss interaction score [2]?
Answer: Its Bliss interaction score is 0.0765.

Question: And the Bliss interaction score [3]?
Answer: Its Bliss interaction score is 0.0249.

Question: What about the Bliss interaction score [4] of the same compound?
Answer: Its Bliss interaction score is 0.0159.
